In US20240391887A1, “New VASHs inhibitors, conjugates thereof and their uses as drugs or as research tools” (Centre National de Recherche Scientifique (CNRS), priority 2021, published 2024):
“Also recorded” adds a separate entry of the source. Where two headings read alike, the source gives them in different places.

Tests used:
VASH1 [1] = biological target: T1, VASH1 (Homo sapiens, UniProt Q7L8A9); test: Standardized in vitro detyrosination ELISA based assay; assay type: biochemical; set-up: poly-histidine tag; made in house; host or cells: bacteria (IPTG induction); details: for Fold change/ LV-80: ratio IC50(compound)/IC50(LV80); for in vitro activity compared with reference compounds / in vitro VASH inhibition activity: in vitro detyrosination assay
Method: Standardized primary ELISA-based in vitro detyrosination assay in a 96-wells format has been developed according to the method disclosed in WO2020/012002. […] Primary (rabbit anti-detyrosinated tubulin) is incubated for 1 hour and after washes, secondary (anti-rabbit) antibody is added to each well. The plate is incubated 1 h at room temperature. Development consists of addition of TMB (3,3′,5,5′-Tetramethylbenzidine) to each well, incubation 30 minute at room temperature. The colour development is stopped by addition of 0.5 M sulfuric acid. OD is measured at 450 nm.
The in vitro inhibition activity of IBMT11 is tested by adding the compound to the reaction medium as described above (see part 2.2) and then detyrosination was analysed by immunoblotting with the indicated antibodies.

CHL-1 cells [2] = test: MTT-based colorimetric cell viability assay; set-up: species or system human; details: 0.1 μM, 24 hours
Source text: We next choose a widely used MTT-based colorimetric assay to assess the potential metabolic toxicity and cell viability alterations in the presence of LV-80. […]

[3] = Solubility in water or PBS solution; assay type: physicochemical; details: compared with the corresponding base LV-80
[4] = tested on: VASH-mediated tubulin detyrosination in human CHL-1 cells; test: In cellulo taxol-induced tubulin detyrosination assay in CHL-1 cells
VASH2 = VASH2 (Homo sapiens, UniProt Q86V25); test: In vitro detyrosination assay, VASH2-mediated (immunoblot); assay type: biochemical; details: concentration not given
carboxypeptidase A (CPA) = biological target: T2, carboxypeptidase A (CPA) (Bos taurus, UniProt P00730); test: Carboxypeptidase A-dependent tubulin detyrosination in vitro; assay type: biochemical; details: concentration not given
T2 sequence (P00730 111-419): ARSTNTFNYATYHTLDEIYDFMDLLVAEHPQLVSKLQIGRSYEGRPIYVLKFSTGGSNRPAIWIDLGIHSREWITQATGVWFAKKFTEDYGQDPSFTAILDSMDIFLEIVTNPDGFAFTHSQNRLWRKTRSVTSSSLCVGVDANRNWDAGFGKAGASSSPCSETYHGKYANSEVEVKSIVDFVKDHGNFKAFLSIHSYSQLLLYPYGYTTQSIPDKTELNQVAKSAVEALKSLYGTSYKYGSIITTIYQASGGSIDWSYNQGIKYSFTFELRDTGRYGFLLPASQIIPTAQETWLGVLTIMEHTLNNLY

VASH1 [5] = biological target: T1, VASH1; test: In vitro detyrosination assay using recombinant VASH1 (immunoblot); details: concentration not given
CHL-1 cells [6] = test: LC/MS bioanalysis of penetration and conversion in human cells; assay type: in vitro ADME; details: 25 uM, 1 hour
Method: CHL-1 cells have been treated with 25 uM of LV-104 for 1 hour. Culture supernatant have been collected immediately (initial) and 1 hour (supernatant) after compound addition. Cells have been washed, lysed and processed for LC/MS reading (Cells) to detect LV-104 and its bio converted form IBMT11.
Peptide stability in serum Human serum reaction sample contained 250 μl of heat inactivated Human Serum (Sigma Aldrich) and 750 μL of RPMI Medium 1640 (Sigma Aldrich). The reactions were initiated by addition of 50 μl compound (in mM stock solution in DMSO). Assays were performed in a shaking water bath at 37° C. 100 μl samples were collected at known time intervals and added to 200 μl of acetonitrile 1% % TFA to precipitate serum proteins. Cloudy sample was cooled to 4° C. for 15 min and then submitted to centrifugation for 10 min at 12,000 rpm to pellet the precipitated serum proteins. 150 μl of the clear supernatants were collected and peptides were finally analyzed by RPHPLC and LC-MS.
The bioanalysis of the penetration and the conversion of the compound LV-104 has been achieved using the above described protocol on human cells (see part 2.2). The results are illustrated on FIG. 14.

VASHs = details: background statement; read-out: IC50 in cellulo; cited from earlier work
[7] = calculated in vitro IC50, read-out: IC50
[8] = read-out: IC50 on cells, compounds added prior Taxol-treatment, FIG. 12

Chain of VASH2 (Q86V25 whole entry, species assumed): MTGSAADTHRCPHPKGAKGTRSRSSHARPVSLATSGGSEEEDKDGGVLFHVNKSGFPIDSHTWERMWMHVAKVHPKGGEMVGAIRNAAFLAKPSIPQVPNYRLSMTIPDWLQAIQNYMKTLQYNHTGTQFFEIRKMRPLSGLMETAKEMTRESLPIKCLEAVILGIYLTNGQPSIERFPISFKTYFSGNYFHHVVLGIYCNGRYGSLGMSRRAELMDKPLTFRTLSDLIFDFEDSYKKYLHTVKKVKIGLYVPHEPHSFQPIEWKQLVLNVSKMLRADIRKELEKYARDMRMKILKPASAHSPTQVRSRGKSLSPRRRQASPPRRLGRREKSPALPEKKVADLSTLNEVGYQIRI
T1 sequence (Q7L8A9 whole entry): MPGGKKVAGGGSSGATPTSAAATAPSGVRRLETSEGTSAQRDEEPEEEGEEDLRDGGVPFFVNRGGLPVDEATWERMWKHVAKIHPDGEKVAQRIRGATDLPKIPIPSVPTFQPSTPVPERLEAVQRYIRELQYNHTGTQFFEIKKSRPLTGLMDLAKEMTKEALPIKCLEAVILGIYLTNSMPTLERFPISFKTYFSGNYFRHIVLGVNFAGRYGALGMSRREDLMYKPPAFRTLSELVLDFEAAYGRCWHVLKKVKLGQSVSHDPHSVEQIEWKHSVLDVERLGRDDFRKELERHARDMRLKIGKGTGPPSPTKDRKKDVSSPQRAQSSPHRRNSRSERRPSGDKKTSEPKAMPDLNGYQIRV
T1 sequence (Q8N300 whole entry partner): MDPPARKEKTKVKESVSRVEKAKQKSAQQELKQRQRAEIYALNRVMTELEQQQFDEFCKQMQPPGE

With CCOc1ccc(C[C@H](NC(=O)[C@H]2O[C@@H]2C(=O)NCCCCC(=O)O)C(=O)O)cc1 [IBMT-26] the IC50 (VASH1 [1]; [7]) was 3900 nM and the “Fold change/ LV-80” value (VASH1 [1]) was 13.
In the case of CC(=O)O[C@H]1C(=O)[C@@]2(C)[C@H]([C@H](OC(=O)c3ccccc3)[C@]3(O)C[C@H](OC(=O)[C@H](O)[C@@H](NC(=O)c4ccccc4)c4ccccc4)C(C)=C1C3(C)C)[C@]1(OC(C)=O)CO[C@@H]1C[C@@H]2O [taxol, paclitaxel], the cell viability (CHL-1 cells [2]) is reported as “significant reduction”.
In the case of O=C([O-])CCC[C@H](NC(=O)[C@H]1O[C@@H]1C(=O)N[C@@H](Cc1ccc(OCc2ccccc2)cc1)C(=O)[O-])C(=O)NCCc1ccccc1.[Na+].[Na+] [IBMT-34], the “solubility in water or PBS solution” value [3] is reported as “dramatically increased”, the “in cellulo activity compared with reference compounds” value ([4]; taxol treated CHL-1 cells) is reported as “same activity” and the IC50 (VASH1 [1]; [7]) is reported as 300 nM. The “in vitro activity compared with reference compounds” value (VASH1 [1]) was “same activity” and the “Fold change/ LV-80” value (VASH1 [1]) was 1.
In the case of CC(C)(C)ONC(=O)CCC[C@@H](NC(=O)[C@H]1O[C@@H]1C(=O)N[C@@H](Cc1ccc(OCc2ccccc2)cc1)C(=O)O)C(=O)NCCc1ccccc1 [IBMT-31 hydro], the IC50 (VASH1 [1]; [7]) is reported as 3900 nM and the “Fold change/ LV-80” value (VASH1 [1]) is reported as 13.
With O=C(O)CC(Cc1ccccc1)C(=O)O (stereo not drawn) [BzISA, benzylsuccinic acid, reference compound] the “effect on VASH2-mediated detyrosination in vitro” value (VASH2) was “did not affect”, the “effect on CPA-dependent detyrosination” value (carboxypeptidase A (CPA)) was “completely abolished” and the “effect on VASH1-mediated detyrosination in vitro” value (VASH1 [5]) was “did not affect”.
For CCOc1ccc(C[C@H](NC(=O)[C@H]2O[C@@H]2C(=O)N[C@H](Cc2ccc(OCC)cc2)C(=O)O)C(=O)O)cc1 [IBMT-11], the “inhibition of tubulin detyrosination in cellulo” value (shortened to “inhibition … in cellulo”) ([4]; taxol treated CHL-1 cells) was “weak inhibition activity”, the IC50 (VASH1 [1]; VASH1-mediated tubulin detyrosination, FIG. 13.A, read-out: in vitro IC50) was 600 nM and the “in vitro activity compared with reference compounds” value (VASH1 [1]) was “more potently than Epo-Y”. For the same compound, the “Fold change/ LV-80” value (VASH1 [1]) was 2.
In the case of CCOC(=O)[C@H](Cc1ccc(OCC)cc1)NC(=O)[C@H]1O[C@@H]1C(=O)OCC [LV-111], the “effect on VASH2-mediated detyrosination in vitro” value (VASH2) is reported as “did not have any effect”, the “effect on VASH1-mediated detyrosination in vitro” value (VASH1 [5]) is reported as “did not have any effect” and the IC50 [4, 8] is reported as 20 nM.
With CCOC(=O)[C@H](Cc1ccc(OCC)cc1)NC(=O)[C@H]1O[C@@H]1C(=O)N[C@@H](Cc1ccc(OCC)cc1)C(=O)OCC [LV-104] the “effect on VASH2-mediated detyrosination in vitro” value (VASH2) was “did not have any effect”, the “conversion of prodrug into IBMT11 inside human cells” value (CHL-1 cells [6]) was “total conversion” and the “detection of parent compound inside cells” value (CHL-1 cells [6]) was “undetectable”. The “effect on VASH1-mediated detyrosination in vitro” value (VASH1 [5]) was “did not have any effect”, the IC50 [4, 8] was 8 nM and the “inhibition … in cellulo” value ([4]; taxol treated CHL-1 cells) was “very efficient inhibition”. The “in vitro VASH inhibition activity” value (VASH1 [1]) was “did not inhibit”.
For O=C(O)[C@H](Cc1ccc(OCc2ccccc2)cc1)NC(=O)[C@H]1O[C@@H]1C(=O)N[C@@H](Cc1ccc(OCc2ccccc2)cc1)C(=O)O [Synthé Mix hydro], the IC50 (VASH1 [1]; [7]) was 600 nM and the “Fold change/ LV-80” value (VASH1 [1]) was 2.
For CCOC(=O)[C@H]1O[C@@H]1C(=O)N[C@@H](Cc1ccc(O)cc1)C(=O)O [Epo-Y, reference compound], the IC50 (VASHs) is listed as ~15000 nM, the IC50 ([4]; read-out: IC50 in cellulo, taxol-induced detyrosination assay, FIG. 4F) is listed as 3000 nM and the “effect on tubulin acetylation” value ([4]; taxol treated CHL-1 cells) is listed as “without affecting”. For the same compound, the “inhibition … in cellulo” value ([4]; taxol treated CHL-1 cells) was “dose-dependently inhibited; also recorded: reduced tubulin detyrosination in a dose-dependent manner”.
For O=C(O)[C@H](Cc1ccc(O)cc1)NC(=O)[C@H]1O[C@@H]1C(=O)N[C@@H](Cc1ccc(O)cc1)C(=O)O [LV-59], the IC50 (VASH1 [1]; [7]) was 1200 nM and the “Fold change/ LV-80” value (VASH1 [1]) was 4.
For O=C(O)C(Cc1ccc(O)cc1)NC(=O)C1OC1C(=O)O (stereo not drawn) [SD-139sapo, reference compound], the “in vitro activity compared with reference compounds” value (VASH1 [1]) was “very less potent than LV-80”.
For CCOC(=O)C1OC1C(=O)NC(Cc1ccc(O)cc1)C(=O)OC(C)(C)C (stereo not drawn) [SD-139, reference compound], the “in vitro activity compared with reference compounds” value (VASH1 [1]) was “very less potent than LV-80”.
With CCOC(=O)CCCCNC(=O)[C@H]1O[C@@H]1C(=O)N[C@@H](Cc1ccc(OCC)cc1)C(=O)OCC [IBMT23] the “in cellulo activity compared with reference compounds” value ([4]; taxol treated CHL-1 cells) was “more potent on cultured cells than LV80; also recorded: as potent in vivo as LV80”, the “inhibition … in cellulo” value ([4]; taxol treated CHL-1 cells) was “excellent” and the “in vitro VASH inhibition activity” value (VASH1 [1]) was “inactive”.
In the case of CCOC(=O)[C@H](Cc1ccc(OCc2ccccc2)cc1)NC(=O)[C@H]1O[C@@H]1C(=O)N[C@H](CCCC(=O)O)C(=O)NCCc1ccccc1 [IBMT-29], the IC50 (VASH1 [1]; [7]) is reported as 4200 nM and the “Fold change/ LV-80” value (VASH1 [1]) is reported as 14.
In the case of NC(=O)C(CCCC(=O)O)NC(=O)C1OC1C(=O)NC(Cc1ccc(O)cc1)C(=O)O (stereo not drawn) [LV-43], the “in cellulo activity compared with reference compounds” value ([4]; taxol treated CHL-1 cells) is reported as “much less efficient than Epo-Y”.
For O=C(O)CCC[C@@H](NC(=O)[C@H]1O[C@@H]1C(=O)N[C@@H](Cc1ccc(OCc2ccccc2)cc1)C(=O)O)C(=O)NCCc1ccccc1 [IBMT-29 hydro], the IC50 (VASH1 [1]; [7]) was 300 nM and the “Fold change/ LV-80” value (VASH1 [1]) was 1.
